Reference: patent US8471061B2 (priority 2004, dated 2013)
Where two headings read alike, the source gives them in different places.

Key:
radish = experiment: Plant activating effect, foliar application, radish; assay type: in vivo; details: 21 days, 12 seeds
Experimental: After 600 g of upland soil was packed in a porcelain pot of 12 cm in inner diameter, 12 grains of radish seeds were sowed therein, covered with 5 mm in depth of the soil and allowed to grow in a green house. Foliar application treatment was carried out once a day using the following application liquids. Conditions of the leaves 21 days thereafter were observed.

Chlorella sp. = experiment: Culturing of plankton; assay type: cell-based; details: 1 mM additive
Experimental: (§1) 5-Aminolevulinic acid nitrate was added, to a concentration of 1 mM (194 ppm), to 100 ml of a sterilized culture shown in Table 17 (components of the culture), and a Chlorella sp. was inoculated therein and cultured on a reciprocal shaker at 30° C. under aerobic and dark conditions to measure the amount of cells (OD 660).
as §1, with “acid hydrochloride” for “acid nitrate”, “mM (168” for “mM (194”, “of the” for “of a”, “and the” for “and a”
The Chlorella sp. was inoculated into 100 ml of the sterilized culture shown in Table 17 (components of the culture) and cultured on a reciprocal shaker at 30° C. under aerobic and dark conditions to measure the amount of cells (OD 660).

[1] = system: female rats (Sprague-Dawley CD species); details: for Dead animals: 2000 mg/kg oral, per animal
Experimental: This test was carried out in accordance with the OECD Guideline No. 423 “Acute Oral Toxicity-Acute Toxicity Grading Method” (adopted on Dec. 17, 2001). Fasted female rats (Sprague-Dawley CD species) of 3 animals per group were treated with 5-aminolevulinic acid phosphate at a dose of 300 mg per kg body weight. In addition, other fasted female rats of two or more groups were treated at a dose of 2000 mg per kg body weight. They were observed after the administration continuously for 2 weeks.

[2] = Chloride ion concentration of aqueous solutions by ion chromatography; assay type: physicochemical; details: detection limit 0.1 ppm; each sample
Experimental: When chloride ion concentration in the aqueous 5-aminolevulinic acid phosphate solutions used in the above-described examples was measured by ion chromatography under the following conditions, it was equal to or lower than the detection limit (0.1 ppm) in each sample.
(§2) The measuring conditions are as follows; A: separation column (IonPac AS12A manufactured by Japan Dionex), B: guard column (IonPac AG12A manufactured by Japan Dionex), C: eluting solution (an aqueous solution containing Na2CO3: 3.0 mmol/l and NaHCO3: 0.5 mmol/l), D: flow rate (1.5 ml/min), E: suppressor (ASRS (recycle mode, current value 50 mA)), F: amount of introduced sample (25 μl), G: temperature of constant temperature oven (35° C.) and H: detector (electric conductivity detector).
When chloride ion concentration in the aqueous 5-aminolevulinic acid nitrate solutions used in the above-described examples was measured by ion chromatography under the following conditions, it was equal to or lower than the detection limit (0.1 ppm) in each sample.
as §2, with “follows:” for “follows;”, “consisting of” for “containing”
When chloride ion concentration in the aqueous 5-aminolevulinic acid p-toluenesulfonate solutions used in the above-described examples was measured by ion chromatography under the following conditions, it was equal to or lower than the detection limit (0.1 ppm) in each sample.

With `Cl.NCC(=O)CCC(=O)O` [5-aminolevulinic acid hydrochloride, reference compound] the “plants judged 0: Abnormality was not found on the leaf surface” value (radish; 1 ppm in tap water) was 4 plants, the “plants judged 1: A region discolored to yellow was found on the leaf surface” value (shortened to “plants judged 1: A region discolored”) (radish; 1 ppm in tap water) was 6 plants and the “plants judged 2: A necrotic region was found on the leaf surface” value (radish; 1 ppm in tap water) was 2 plants. The “plants judged 0: Abnormality was not found on the leaf surface” value (radish; 10 ppm in tap water) was 4 plants, the “plants judged 1: A region discolored” value (radish; 10 ppm in tap water) was 4 plants and the “plants judged 2: A necrotic region was found on the leaf surface” value (radish; 10 ppm in tap water) was 4 plants. For the same molecule, the “plants judged 0: Abnormality was not found on the leaf surface” value (radish; 100 ppm in tap water) was 3 plants, the “plants judged 1: A region discolored” value (radish; 100 ppm in tap water) was 5 plants and the “plants judged 2: A necrotic region was found on the leaf surface” value (radish; 100 ppm in tap water) was 4 plants. The “amount of cells: OD 660 nm” value (Chlorella sp.; Culture time 0 day) was 1.8, the “amount of cells: OD 660 nm” value (Chlorella sp.; Culture time 1 day) was 6.3 and the “amount of cells: OD 660 nm” value (Chlorella sp.; Culture time 2 day) was 12.5. The “amount of cells: OD 660 nm” value (Chlorella sp.; Culture time 3 day) was 14.8.

Molecule `NCC(=O)CCC(=O)O.O=P(O)(O)O` [5-aminolevulinic acid phosphate, 5-aminolevulinic Acid Phosphate] has a Dead animals ([1]; 0.5 hour after administration) of 0, a Dead animals ([1]; 1 hour after administration) of 0 and a Dead animals ([1]; 2 hour after administration) of 0. It also gave a Dead animals ([1]; 4 hour after administration) of 0, a Dead animals ([1]; day 1 after administration) of 0 and a Dead animals ([1]; day 2 after administration) of 0. It also gave a Dead animals ([1]; day 3 after administration) of 0, a Dead animals ([1]; day 4 after administration) of 0 and a Dead animals ([1]; day 5 after administration) of 0. The Dead animals ([1]; day 6 after administration) was 0, the Dead animals ([1]; day 7 after administration) was 0 and the Dead animals ([1]; day 8 after administration) was 0. For the same molecule, the Dead animals ([1]; day 9 after administration) was 0, the Dead animals ([1]; day 10 after administration) was 0 and the Dead animals ([1]; day 11 after administration) was 0. The Dead animals ([1]; day 12 after administration) was 0, the Dead animals ([1]; day 13 after administration) was 0 and the Dead animals ([1]; day 14 after administration) was 0. The death ([1]; 300 and 2000 mg per kg body weight, 2 weeks) was “death was not found in all of the rats”, the “acute oral 50% lethal dose (LD50)” value ([1]; fasted female rats, observed 2 weeks) was > 2,500 mg per kg body weight and the “chloride ion concentration in the aqueous solutions used in the examples” value [2] was at most 0.1 ppm.
